Results reported in ChEMBL document CHEMBL1275553, “Pyrosequencing to detect mutations in FKS1 that confer reduced echinocandin susceptibility in Candida albicans” (2008).
≈ marks a conversion by molar mass, not a printed value. Starred links: 1 amine or outer side, 2 acyl side, 3 side chain; linkers in the order of their positions; H or OH if unused. Positions of bridges follow the written chain, without caps; N, C: chain ends. Non-standard residues stand in square brackets, D forms with d. Residues, ends and D or L forms follow the SMILES beside them. *: point of attachment. hTyr(3S-OH,4S-OH,3'-OSO3H) = N[C@H](C(=O)O)[C@H](O)[C@@H](O)c1ccc(O)c(OS(=O)(=O)O)c1; pTerphenylCO(4''-OnC5H11) = CCCCCOc1ccc(-c2ccc(-c3ccc(C(=O)*)cc3)cc2)cc1; Orn(4R-OH,5R-OH) = O=C([C@H](C[C@@H](O)[C@@H](O)N[*:3])N[*:1])[*:2]; hTyr(3S-OH,4S-OH) = N[C@H](C(=O)O)[C@H](O)[C@@H](O)c1ccc(O)cc1; Pro(3S-OH,4S-Me) = C[C@H]1CN[C@H](C(=O)O)[C@H]1O; X1 = CCCCCOc1ccc(-c2cc(-c3ccc(C(=O)*)cc3)no2)cc1; Gln(3R-OH) = NC(=O)C[C@@H](O)[C@H](N)C(=O)O; Hyp = O=C(O)[C@@H]1C[C@@H](O)CN1

Columns and labels:
Type in all cases: functional
Candida albicans [1] = test: Antifungal activity against Candida albicans 42286 expressing wild type FKS1 after 24 hrs by broth microdilution method in presence of 50% human serum; conditions: Candida albicans, 42286, 24 h
Candida albicans [2] = test: Antifungal activity against Candida albicans 4254 expressing FKS1 F641S mutant after 24 hrs by broth microdilution method; conditions: Candida albicans, 4254, 24 h
Candida albicans [3] = test: Antifungal activity against Candida albicans 4254 expressing FKS1 F641S mutant after 24 hrs by broth microdilution method in presence of 50% human serum; conditions: Candida albicans, 4254, 24 h
Candida albicans [4] = test: Antifungal activity against Candida albicans 43001 expressing FKS1 F641S mutant after 24 hrs by broth microdilution method; conditions: Candida albicans, 43001, 24 h
Candida albicans [5] = test: Antifungal activity against Candida albicans 42379 expressing FKS1 F645P mutant after 24 hrs by broth microdilution method; conditions: Candida albicans, 42379, 24 h
Candida albicans [6] = test: Antifungal activity against Candida albicans 53264 expressing FKS1 F645P mutant after 24 hrs by broth microdilution method in presence of 50% human serum; conditions: Candida albicans, 53264, 24 h
Candida albicans [7] = test: Antifungal activity against Candida albicans 41509 expressing FKS1 F641S mutant after 24 hrs by broth microdilution method in presence of 50% human serum; conditions: Candida albicans, 41509, 24 h
Candida albicans [8] = test: Antifungal activity against Candida albicans 42996 expressing FKS1 F641S mutant after 24 hrs by broth microdilution method in presence of 50% human serum; conditions: Candida albicans, 42996, 24 h
Candida albicans [9] = test: Antifungal activity against Candida albicans 32746 expressing FKS1 F641S mutant after 24 hrs by broth microdilution method in presence of 50% human serum; conditions: Candida albicans, 32746, 24 h
Candida albicans [10] = test: Antifungal activity against Candida albicans SC5314 expressing wild type FKS1 after 24 hrs by broth microdilution method; conditions: SC5314, 24 h
Candida albicans [11] = test: Antifungal activity against Candida albicans 42996 expressing FKS1 F641S mutant after 24 hrs by broth microdilution method; conditions: Candida albicans, 42996, 24 h
Candida albicans [12] = test: Antifungal activity against Candida albicans 2762 expressing FKS1 F641S mutant after 24 hrs by broth microdilution method in presence of 50% human serum; conditions: Candida albicans, 2762, 24 h
Candida albicans [13] = test: Antifungal activity against Candida albicans 32746 expressing FKS1 F641S mutant after 24 hrs by broth microdilution method; conditions: Candida albicans, 32746, 24 h
Candida albicans [14] = test: Antifungal activity against Candida albicans 42286 expressing wild type FKS1 after 24 hrs by broth microdilution method; conditions: Candida albicans, 42286, 24 h
Candida albicans [15] = test: Antifungal activity against Candida albicans 41509 expressing FKS1 F641S mutant after 24 hrs by broth microdilution method; conditions: Candida albicans, 41509, 24 h
Candida albicans [16] = test: Antifungal activity against Candida albicans 41301 expressing FKS1 F641S mutant after 24 hrs by broth microdilution method; conditions: Candida albicans, 41301, 24 h
Candida albicans [17] = test: Antifungal activity against Candida albicans 2762 expressing FKS1 F641S mutant after 24 hrs by broth microdilution method; conditions: Candida albicans, 2762, 24 h
Candida albicans [18] = test: Antifungal activity against Candida albicans 41301 expressing FKS1 F641S mutant after 24 hrs by broth microdilution method in presence of 50% human serum; conditions: Candida albicans, 41301, 24 h
Candida albicans [19] = test: Antifungal activity against Candida albicans 53264 expressing FKS1 F645P mutant after 24 hrs by broth microdilution method; conditions: Candida albicans, 53264, 24 h
Candida albicans [20] = test: Antifungal activity against Candida albicans 5415 expressing FKS1 F645P/H mutant after 24 hrs by broth microdilution method in presence of 50% human serum; conditions: Candida albicans, 5415, 24 h
Candida albicans [21] = test: Antifungal activity against Candida albicans 42379 expressing FKS1 F645P mutant after 24 hrs by broth microdilution method in presence of 50% human serum; conditions: Candida albicans, 42379, 24 h
Candida albicans [22] = test: Antifungal activity against Candida albicans 5415 expressing FKS1 F645P/H mutant after 24 hrs by broth microdilution method; conditions: Candida albicans, 5415, 24 h
Candida albicans [23] = test: Antifungal activity against Candida albicans 4715 expressing FKS1 F641S mutant after 24 hrs by broth microdilution method; conditions: Candida albicans, 4715, 24 h
Candida albicans [24] = test: Antifungal activity against Candida albicans 4715 expressing FKS1 F641S mutant after 24 hrs by broth microdilution method in presence of 50% human serum; conditions: Candida albicans, 4715, 24 h
Candida albicans [25] = test: Antifungal activity against Candida albicans SC5314 expressing wild type FKS1 after 24 hrs by broth microdilution method in presence of 50% human serum; conditions: SC5314, 24 h
Candida albicans [26] = test: Antifungal activity against Candida albicans 43001 expressing FKS1 F641S mutant after 24 hrs by broth microdilution method in presence of 50% human serum; conditions: Candida albicans, 43001, 24 h

| Structure (SMILES) | MIC (Candida albicans [1]) [µg/mL] | MIC (Candida albicans [2]) [µg/mL] | MIC (Candida albicans [3]) [µg/mL] | MIC (Candida albicans [4]) [µg/mL] | MIC (Candida albicans [5]) [µg/mL] | MIC (Candida albicans [6]) [µg/mL] | MIC (Candida albicans [7]) [µg/mL] | MIC (Candida albicans [8]) [µg/mL] | MIC (Candida albicans [9]) [µg/mL] | MIC (Candida albicans [10]) [µg/mL] | MIC (Candida albicans [11]) [µg/mL] | MIC (Candida albicans [12]) [µg/mL] | MIC (Candida albicans [13]) [µg/mL] | MIC (Candida albicans [14]) [µg/mL] | MIC (Candida albicans [15]) [µg/mL] | MIC (Candida albicans [16]) [µg/mL] | MIC (Candida albicans [17]) [µg/mL] | MIC (Candida albicans [18]) [µg/mL] | MIC (Candida albicans [19]) [µg/mL] | MIC (Candida albicans [20]) [µg/mL] | also measured |
| --- | --- | --- | --- | --- | --- | --- | --- | --- | --- | --- | --- | --- | --- | --- | --- | --- | --- | --- | --- | --- | --- |
| CCCCCOc1ccc(-c2ccc(-c3ccc(C(=O)N[C@H]4C[C@@H](O)[C@@H](O)NC(=O)[C@@H]5[C@@H](O)[C@@H](C)CN5C(=O)[C@H]([C@@H](C)O)NC(=O)[C@H]([C@H](O)[C@@H](O)c5ccc(O)cc5)NC(=O)[C@@H]5C[C@@H](O)CN5C(=O)[C@H]([C@@H](C)O)NC4=O)cc3)cc2)cc1 [ANIDULAFUNGIN] ({pTerphenylCO(4''-OnC5H11)}-[Orn(4R-OH,5R-OH)]T[Hyp][hTyr(3S-OH,4S-OH)]T[Pro(3S-OH,4S-Me)]; lactam 1-C) | 1 | 0.125 (≈ 0.11 µM) | 2 | 0.5 (≈ 0.438 µM) | 0.5 (≈ 0.438 µM) | 32 | 8 | 4 | 8 | 0.03 (≈ 0.0263 µM) | 0.125 (≈ 0.11 µM) | 4 | 0.25 (≈ 0.219 µM) | 0.125 (≈ 0.11 µM) | 0.5 (≈ 0.438 µM) | 0.25 (≈ 0.219 µM) | 0.5 (≈ 0.438 µM) | 8 | 1 (≈ 0.877 µM) | 16 | MIC (Candida albicans [21]): 8 µg/mL; MIC (Candida albicans [22]): 1 µg/mL (≈ 0.877 µM); MIC (Candida albicans [23]): 0.25 µg/mL (≈ 0.219 µM); MIC (Candida albicans [24]): 8 µg/mL; MIC (Candida albicans [25]): 0.5 µg/mL; MIC (Candida albicans [26]): 4 µg/mL |
| CC[C@H](C)C[C@H](C)CCCCCCCCC(=O)N[C@H]1C[C@@H](O)[C@@H](NCCN)NC(=O)[C@@H]2[C@@H](O)CCN2C(=O)[C@H]([C@H](O)CCN)NC(=O)[C@H]([C@H](O)[C@@H](O)c2ccc(O)cc2)NC(=O)[C@@H]2C[C@@H](O)CN2C(=O)[C@H]([C@@H](C)O)NC1=O [CASPOFUNGIN] | 4 | 2 (≈ 1.83 µM) | 4 | 4 (≈ 3.66 µM) | 8 (≈ 7.32 µM) | > 32 | 8 | 8 | 4 | 0.125 (≈ 0.114 µM) | 4 (≈ 3.66 µM) | 8 | 4 (≈ 3.66 µM) | 2 (≈ 1.83 µM) | 4 (≈ 3.66 µM) | 4 (≈ 3.66 µM) | 4 (≈ 3.66 µM) | 8 | 4 (≈ 3.66 µM) | 32 | MIC (Candida albicans [21]): > 32 µg/mL; MIC (Candida albicans [22]): 8 µg/mL (≈ 7.32 µM); MIC (Candida albicans [23]): 2 µg/mL (≈ 1.83 µM); MIC (Candida albicans [24]): 8 µg/mL; MIC (Candida albicans [25]): 0.25 µg/mL; MIC (Candida albicans [26]): 8 µg/mL |
| CCCCCOc1ccc(-c2cc(-c3ccc(C(=O)N[C@H]4C[C@@H](O)[C@@H](O)NC(=O)[C@@H]5[C@@H](O)[C@@H](C)CN5C(=O)[C@H]([C@H](O)CC(N)=O)NC(=O)[C@H]([C@H](O)[C@@H](O)c5ccc(O)c(OS(=O)(=O)O)c5)NC(=O)[C@@H]5C[C@@H](O)CN5C(=O)[C@H]([C@@H](C)O)NC4=O)cc3)no2)cc1 [MICAFUNGIN] (X1-[Orn(4R-OH,5R-OH)]T[Hyp][hTyr(3S-OH,4S-OH,3'-OSO3H)][Gln(3R-OH)][Pro(3S-OH,4S-Me)]; lactam 1-C) | 8 | 0.5 (≈ 0.394 µM) | 8 | 2 (≈ 1.57 µM) | 4 (≈ 3.15 µM) | > 32 | 32 | 32 | 16 | 0.06 (≈ 0.0472 µM) | 1 (≈ 0.787 µM) | 16 | 1 (≈ 0.787 µM) | 1 (≈ 0.787 µM) | 0.5 (≈ 0.394 µM) | 0.5 (≈ 0.394 µM) | 1 (≈ 0.787 µM) | 16 | 4 (≈ 3.15 µM) | 32 | MIC (Candida albicans [21]): > 32 µg/mL; MIC (Candida albicans [22]): 1 µg/mL (≈ 0.787 µM); MIC (Candida albicans [23]): 1 µg/mL (≈ 0.787 µM); MIC (Candida albicans [24]): 16 µg/mL; MIC (Candida albicans [25]): 1 µg/mL; MIC (Candida albicans [26]): 16 µg/mL |
